# Laboratory results taken from ChEMBL document CHEMBL1201862, “PubChem BioAssay data set” (2004).
#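 Briefly, cells in 96-well plates were exposed to five compound concentrations for 48 h, and endpoints were estimated by linear interpolation. Abbreviation: GI50, concentration required for 50% inhibition of growth.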 Calls of active or inactive are those of the source. No stated cut-off is given here; in the data, active = GI50 up to about 1.1 µM and inactive = higher.
# How the values were obtained:
# Assay in all cases: inhibition of tumour cell growth, NCI panel, 48 h
# HCT-116 = tested on: HCT-116
# SK-MEL-28 = tested on: SK-MEL-28
# A549 = tested on: A549
# NCI-H23 = tested on: NCI-H23
# OVCAR-5 = tested on: OVCAR-5
# HOP-62 = tested on: HOP-62
# SW-620 = tested on: SW-620
# MOLT-4 = tested on: MOLT-4
# MDA-N = tested on: MDA-N
# MCF7 = tested on: MCF7
# IGROV-1 = tested on: IGROV-1
# Hs-578T = tested on: Hs-578T
# CCRF-CEM = tested on: CCRF-CEM
# BT-549 = tested on: BT-549
# COLO 205 = tested on: COLO 205
# MDA-MB-231 = tested on: MDA-MB-231
# RXF 393 = tested on: RXF 393
# HT-29 = tested on: HT-29
# TK-10 = tested on: TK-10
# M14 = tested on: M14
Compound,GI50 (HCT-116),GI50 (SK-MEL-28),GI50 (A549),GI50 (NCI-H23),GI50 (OVCAR-5),GI50 (HOP-62),GI50 (SW-620),GI50 (MOLT-4),GI50 (MDA-N),GI50 (MCF7),GI50 (IGROV-1),GI50 (Hs-578T),GI50 (CCRF-CEM),GI50 (BT-549),GI50 (COLO 205),GI50 (MDA-MB-231),GI50 (RXF 393),GI50 (HT-29),GI50 (TK-10),GI50 (M14)
O=C(O)c1cc(O)nc(S)n1,> 100 µM (inactive),> 100 µM (inactive),> 100 µM (inactive),> 100 µM (inactive),> 100 µM (inactive),> 100 µM (inactive),> 100 µM (inactive),> 100 µM (inactive),> 100 µM (inactive),> 100 µM (inactive),> 100 µM (inactive),> 100 µM (inactive),> 100 µM (inactive),> 100 µM (inactive),> 100 µM (inactive),> 100 µM (inactive),> 100 µM (inactive),> 100 µM (inactive),> 100 µM (inactive),> 100 µM (inactive)
Nc1ccc(Oc2ccc(C3(c4ccc(Oc5ccc(N)cc5)cc4)C4CC5CC(C4)CC3C5)cc2)cc1,0.782 µM (active),16.5 µM (inactive),6.08 µM (inactive),13.8 µM (inactive),19.9 µM (inactive),11.8 µM (inactive),4.26 µM (inactive),4.27 µM (inactive),6.32 µM (inactive),3.55 µM (inactive),12.8 µM (inactive),> 22.1 µM (inactive),3.03 µM (inactive),11.6 µM (inactive),3.72 µM (inactive),17 µM (inactive),6.3 µM (inactive),0.489 µM (active),22.8 µM (inactive),3.2 µM (inactive)
CCc1cccc(C(C)C)c1NC(=O)C(=O)C1C(=O)Nc2ccccc2[S+]1[O-] (stereo not given),> 100 µM (inactive),> 100 µM (inactive),> 100 µM (inactive),> 100 µM (inactive),> 100 µM (inactive),> 100 µM (inactive),> 100 µM (inactive),> 100 µM (inactive),> 100 µM (inactive),> 100 µM (inactive),38.9 µM (inactive),> 100 µM (inactive),> 100 µM (inactive),> 100 µM (inactive),> 100 µM (inactive),> 100 µM (inactive),56.1 µM (inactive),> 100 µM (inactive),> 100 µM (inactive),> 100 µM (inactive)
O=C[C@@H](CO)O[C@H](C=O)c1c[nH]c(=O)[nH]c1=O,84.5 µM (inactive),85.7 µM (inactive),192 µM (inactive),69.3 µM (inactive),131 µM (inactive),59 µM (inactive),62.8 µM (inactive),47.8 µM (inactive),70.8 µM (inactive),45.2 µM (inactive),81.1 µM (inactive),100 µM (inactive),34.9 µM (inactive),79.1 µM (inactive),77.1 µM (inactive),74.1 µM (inactive),54.8 µM (inactive),107 µM (inactive),104 µM (inactive),126 µM (inactive)
CC(=O)OC1=c2ccccc2=C(O)C2C1C=NN2C(C)=O (stereo not given),> 100 µM (inactive),> 100 µM (inactive),> 100 µM (inactive),> 100 µM (inactive),> 100 µM (inactive),> 100 µM (inactive),> 100 µM (inactive),> 100 µM (inactive),> 100 µM (inactive),> 100 µM (inactive),99.3 µM (inactive),88.5 µM (inactive),> 100 µM (inactive),> 100 µM (inactive),95.3 µM (inactive),> 100 µM (inactive),> 100 µM (inactive),> 100 µM (inactive),> 100 µM (inactive),> 100 µM (inactive)
Cc1cccc2c1c(=O)c1c(O)c3c(cc1n2C)OC(C)(C)C=C3,> 10 µM (inactive),> 10 µM (inactive),> 10 µM (inactive),> 10 µM (inactive),> 10 µM (inactive),> 10 µM (inactive),> 10 µM (inactive),> 10 µM (inactive),> 10 µM (inactive),6.15 µM (inactive),> 10 µM (inactive),> 10 µM (inactive),> 10 µM (inactive),> 10 µM (inactive),> 10 µM (inactive),> 10 µM (inactive),> 10 µM (inactive),3.59 µM (inactive),> 10 µM (inactive),> 10 µM (inactive)
O=C(Nc1nncs1)NS(=O)(=O)n1cnc2ccccc21,> 100 µM (inactive),> 100 µM (inactive),> 100 µM (inactive),> 100 µM (inactive),> 100 µM (inactive),> 100 µM (inactive),> 100 µM (inactive),> 100 µM (inactive),> 100 µM (inactive),> 10 µM (inactive),> 100 µM (inactive),> 100 µM (inactive),> 100 µM (inactive),> 100 µM (inactive),> 100 µM (inactive),> 100 µM (inactive),> 100 µM (inactive),> 100 µM (inactive),> 100 µM (inactive),> 100 µM (inactive)
